# Values quoted from earlier work as cited in patent US7102020B2, “Total synthesis of daurichromenic acid” (priority 2002, dated 2006).
# Tested on: HIV
# Settings: acutely infected H9 cells
compound,measurement,value
CC(C)=CCC/C(C)=C/CC[C@@]1(C)C=Cc2c(cc(C)c(C(=O)O)c2O)O1 [Daurichromenic acid],anti-HIV activity EC50,5.67 ng/mL
